Test results: publication PMC10447463, “Data-mining unveils structure–property–activity correlation of viral infectivity enhancing self-assembling peptides” (Nature Communications, 2023)
Where “and” joins values, the source holds several entries; their conditions need not be identical. Equal values may be shown once. Read-outs that look alike come from different tables or passages of the source.

Tests used:
[1] = assay type: physicochemical; conditions: STD prep
[2] = assay type: physicochemical
In short: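 Preformed peptide fibrils (1 mg/mL) mixed with 50 µM ThT in PBS, 15 min at RT, fluorescence ex 440/em 488 nm versus PBS blank, triplicates. Zeta potential: peptides at 1 mg/mL in PBS pH 7.4, aged 1 d at RT, diluted in 1 mM KCl, Smoluchowski from electrophoretic mobility.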

[3] = β-sheet content by ATR-FT-IR; assay type: physicochemical
In short: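 β-sheet content came from ATR FT-IR spectra of lyophilized 1 mg/mL nanofibril solution (64 scans, 2 cm^-1 resolution). Conversion was measured by separating free monomer with a 3 kDa cutoff filter, then comparing fluorescamine fluorescence (ex 365/em 470 nm, 20 min RT) of filtrate versus unfiltered sample, in triplicate.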

[4] = ref sieste 2021 or Schilling2019, cited from earlier work
Description: Supplement 41467_2023_40663_MOESM7_ESM.zip/FigS17.csv, table | column: Conversion Rate / % ( from sieste 2021 or Schilling2019)

[5] = ThT fluorescence relative to blank (42.1851851851852 a.u.)
[6] = relative to blank 42.1851851851852 a.u.
[7] = ThT fluorescence relative to blank, blank = 42.1851851851852
[8] = previously reported peptides only

Row | Substance | TEM: 1= fibrils, 0= aggregates (micelle), 0.5 = aggregates and fibrils, -1 = nothing obersved, STD prep [1] | TEM: 1= fibrils, 0= aggregates (micelle), 0.5 = aggregates and fibrils, -1 = nothing obersved, STD prep ([1]; TEM) | Tht category (> 1.5 to blank = +) ([2]; FigS26) | Tht rel to blank (42.1851851851852) [2, 5] | Tht category (> 1.5 to blank = +) ([2]; category 1/0) | Tht category (> 1.5 to blank = +) ([2]; category from ThT rel to blank) | Tht rel to blank (42.1851851851852) [2, 6] | FTIR ß-sheet content/ % [3] [%] | FTIR ß-sheet content/ % ([3]; ATR-FT-IR) | Conversion Rate / % ( from sieste 2021 or Schilling2019) ([4]; literature value) [%] | Conversion Rate / % ( from sieste 2021 or Schilling2019) [4] [%] | TEM: 1= fibrils, 0= aggregates (micelle), 0.5 = aggregates and fibrils, -1 = nothing obersved, STD prep ([1]; FigS26) | Tht rel to blank (42.1851851851852) [2, 7] | Conversion Rate / % ( from sieste 2021 or Schilling2019) [4, 8] [%]
1 | KFKFQFNMWQ [JG4] | 1 | 1 | 1 (Tht category (> 1.5 to blank = +)) | 2.807 | 1 (ThT. Cat is 1, if Rel. ThT >2) | 1 (ThT. Cat is 1, if Rel. ThT >2) | 2.807 | 43.15 | 43% and 43.15% | 94 | 94 | – | – | –
2 | CKIKIQI [MG3b] | 1 | – | – | 3.939 | 1 (ThT. Cat is 1, if Rel. ThT >2) | – | 3.939 | 53 | 53% | – | 54 | 1 | – | –
3 | CEIEIQINMWQ [TM143] | 0.5 | – | – | 3.705 | 1 (ThT. Cat is 1, if Rel. ThT >2) | – | 3.705 | 49.9 | 49.9% | – | 74 | – | – | –
4 | CKIKQIINMWQ [MG5a / CK17] | 1 | – | – | 48.46 | 1 (ThT. Cat is 1, if Rel. ThT >2) | – | 48.46 | 51 | 51% | – | – | – | 48.46 | 50
5 | CKFKFQF [BL4] | 1 | – | – | 2.251 | 1 (ThT. Cat is 1, if Rel. ThT >2) | – | 2.251 | 47.43 | 47% and 47.43% | – | 95 | – | – | –
6 | KIKQIINMWQ [JG2] | 1 | – | 1 (Tht category (> 1.5 to blank = +)) | 4.945 | 1 (ThT. Cat is 1, if Rel. ThT >2) | – | – | 40.68 | 41% and 40.68% | – | – | 1 | 4.945 | 86
7 | CKIKIQINM [MG2] | 1 | – | – | 2.648 | 1 (ThT. Cat is 1, if Rel. ThT >2) | – | 2.648 | 42.84 | 43% and 42.84% | – | 72 | – | – | –
